Source: PubChem BioAssay (NCI)
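Following 48 hours of exposure in 96-well plates, responses at five concentrations were used to interpolate endpoints linearly. TGI: concentration producing complete growth inhibition.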

Columns and labels:
Assay in all cases: NCI-60 cell line screen, 48 h
CCRF-CEM leukemia = tested on: CCRF-CEM leukemia
DU-145 prostate = tested on: DU-145 prostate
HS 578T breast = tested on: HS 578T breast
IGROV1 ovarian = tested on: IGROV1 ovarian
MCF7 breast = tested on: MCF7 breast
MOLT-4 leukemia = tested on: MOLT-4 leukemia
NCI-H226 lung = tested on: NCI-H226 lung
NCI-H522 lung = tested on: NCI-H522 lung
OVCAR-3 ovarian = tested on: OVCAR-3 ovarian
OVCAR-5 ovarian = tested on: OVCAR-5 ovarian
RPMI-8226 leukemia = tested on: RPMI-8226 leukemia
SF-268 CNS = tested on: SF-268 CNS
SF-295 CNS = tested on: SF-295 CNS
SK-MEL-5 melanoma = tested on: SK-MEL-5 melanoma
SK-OV-3 ovarian = tested on: SK-OV-3 ovarian
SNB-75 CNS = tested on: SNB-75 CNS
TK-10 renal = tested on: TK-10 renal

Compound	TGI (CCRF-CEM leukemia)	TGI (DU-145 prostate)	TGI (HS 578T breast)	TGI (IGROV1 ovarian)	TGI (MCF7 breast)	TGI (MOLT-4 leukemia)	TGI (NCI-H226 lung)	TGI (NCI-H522 lung)	TGI (OVCAR-3 ovarian)	TGI (OVCAR-5 ovarian)	TGI (RPMI-8226 leukemia)	TGI (SF-268 CNS)	TGI (SF-295 CNS)	TGI (SK-MEL-5 melanoma)	TGI (SK-OV-3 ovarian)	TGI (SNB-75 CNS)	TGI (TK-10 renal)
Oc1ccc2ccccc2c1-c1c(Nc2ccccc2)ccc2ccccc12	44.7 µM	32.3 µM	41.1 µM	18.7 µM	> 42.7 µM	46.4 µM	36.1 µM	29.6 µM	22.7 µM	> 50.1 µM	47.6 µM	31.6 µM	30.5 µM	29 µM	18.7 µM	31.9 µM	32.1 µM
C=CC1(c2ccc3ccccc3c2)OCC(CC)(CC)CO1	40.1 µM	> 100 µM	41.6 µM	52.3 µM	56.2 µM	38.8 µM	33.4 µM	50.9 µM	51.5 µM	38.5 µM	80.4 µM	95.6 µM	65.2 µM	34 µM	> 100 µM	96.1 µM	89.5 µM
COc1ccc(/C=C/C(=O)c2nc3ccccc3[nH]2)cc1	> 100 µM	45.6 µM	> 77.2 µM	25.9 µM	> 81 µM	> 67.1 µM	> 54.7 µM	32.5 µM	48.5 µM	> 71.7 µM	> 29.8 µM	> 64.5 µM	> 84.8 µM	31.8 µM	86.1 µM	57.4 µM	47.2 µM
Oc1ccc(-c2c3ccccc3c(-c3ccc(OCCBr)cc3)c3ccccc23)cc1	> 100 µM	> 100 µM	82.2 µM	44.2 µM	32 µM	> 100 µM	54.5 µM	74 µM	33.7 µM	> 100 µM	63.5 µM	> 100 µM	32.7 µM	36.3 µM	> 100 µM	60.9 µM	99.2 µM
CC(=O)OCc1cccc(O)c1C(=O)CCC=C(C)C	> 100 µM	> 100 µM	> 100 µM	> 100 µM	> 100 µM	> 100 µM	> 100 µM	56.6 µM	> 100 µM	> 100 µM	> 100 µM	> 100 µM	> 100 µM	> 100 µM	> 100 µM	–	> 100 µM
CSc1c(CC(=O)O)n(Cc2ccccc2)c2ccccc12	> 100 µM	> 100 µM	> 100 µM	> 100 µM	> 100 µM	> 100 µM	–	> 100 µM	> 100 µM	> 100 µM	> 100 µM	> 100 µM	> 100 µM	> 100 µM	> 100 µM	> 100 µM	> 100 µM
C[C@@H]1CCC2[C@@H](C)[C@H](O[C@H]3O[C@@H]4O[C@@]5(C)CCC6[C@H](C)CCC([C@H]3C)[C@]64OO5)O[C@@H]3O[C@@]4(C)CCC1[C@@]23OO4 (stereo partly drawn)	18.3 µM	19.5 µM	24.2 µM	18.4 µM	25.3 µM	15 µM	34.1 µM	12.9 µM	18.3 µM	10.3 µM	1.46 µM	23.8 µM	18.8 µM	12.8 µM	41.7 µM	14.5 µM	17.2 µM
CN(C)C1(C(=O)O)CC1	> 100 µM	> 100 µM	> 100 µM	> 100 µM	> 100 µM	> 100 µM	> 100 µM	> 100 µM	> 100 µM	> 100 µM	> 100 µM	> 100 µM	> 100 µM	> 100 µM	–	> 100 µM	> 100 µM
O=C(N1CCOCC1)C1(c2ccccc2)CCNCC1	78.8 µM	> 100 µM	> 100 µM	> 100 µM	> 100 µM	> 100 µM	> 100 µM	> 100 µM	> 100 µM	> 100 µM	> 100 µM	> 100 µM	> 100 µM	> 100 µM	> 100 µM	> 100 µM	> 100 µM
O=C1NCC2(CCN(Cc3ccccc3)CC2)N1	> 100 µM	> 100 µM	> 100 µM	> 100 µM	> 100 µM	> 100 µM	> 100 µM	> 100 µM	> 100 µM	> 100 µM	> 100 µM	> 100 µM	> 100 µM	> 100 µM	> 100 µM	> 100 µM	> 100 µM
COc1ccc(C(=O)/C=C2\c3ccccc3C(=O)N2C)cc1	> 100 µM	> 100 µM	> 100 µM	> 100 µM	> 100 µM	> 100 µM	–	> 100 µM	> 100 µM	> 100 µM	> 100 µM	> 100 µM	> 100 µM	> 100 µM	> 100 µM	> 100 µM	> 100 µM
CC(=O)Nc1ccc2c3c(cc(O)c2c1)N(C(=O)CCCC(=O)Nc1ccc2c4c(cc(O)c2c1)N(C(=O)OC(C)(C)C)CC4CCl)CC3CCl (stereo not drawn)	0.599 µM	> 50 µM	> 12.1 µM	> 50 µM	> 16.3 µM	0.912 µM	–	3.85 µM	2.89 µM	> 15.4 µM	> 34.8 µM	–	> 42.9 µM	> 11.6 µM	> 15.6 µM	12.6 µM	35 µM
COc1ccc(C2=NN(C(=O)c3ccccc3)C(O)(c3cc(F)c(Cl)cc3Cl)C2)cc1OC (stereo not drawn)	> 100 µM	> 100 µM	> 100 µM	> 100 µM	> 100 µM	> 100 µM	> 100 µM	> 100 µM	69.3 µM	> 100 µM	> 100 µM	> 100 µM	> 100 µM	> 100 µM	48.8 µM	–	98.1 µM
COC(=O)c1cc(C)n2c1CS[C@@H]2c1ccccc1	> 100 µM	> 100 µM	> 100 µM	> 100 µM	> 100 µM	71.1 µM	89.1 µM	82 µM	> 100 µM	> 100 µM	84.5 µM	> 100 µM	> 100 µM	44.3 µM	> 100 µM	81.3 µM	> 100 µM
NCCCCC(N)C(=O)N1CCN(c2nc(N3CCCC3)c3nc(Cl)c(NCc4ccccc4)nc3n2)CC1 (stereo not drawn)	37.7 µM	33.5 µM	47.4 µM	33.9 µM	38.1 µM	50.6 µM	45.6 µM	42.1 µM	36.9 µM	33.9 µM	44.4 µM	45.2 µM	35.4 µM	34.1 µM	37.4 µM	32.9 µM	35.6 µM
OCCOCCN1CCN(c2nc(N3CCCC3)c3nc(Cl)c(NCc4ccccc4)nc3n2)CC1	32.9 µM	25.3 µM	43.5 µM	33.9 µM	29.5 µM	27.8 µM	40.7 µM	31.5 µM	29.2 µM	28.9 µM	27.9 µM	31.9 µM	29.3 µM	17.9 µM	31.9 µM	36.5 µM	25 µM
O=C(CC(=O)N(C(=O)c1ccccc1)c1ccc(Cl)cc1)N/N=C\c1ccccc1O	> 100 µM	> 100 µM	81.3 µM	> 100 µM	> 100 µM	> 100 µM	> 100 µM	> 100 µM	> 100 µM	> 100 µM	> 100 µM	> 100 µM	80.9 µM	> 100 µM	54.3 µM	67.4 µM	> 100 µM
CC(Oc1ccccc1)C(=O)NN (stereo not drawn)	> 100 µM	> 100 µM	> 100 µM	> 100 µM	> 100 µM	> 100 µM	> 100 µM	> 100 µM	> 100 µM	> 100 µM	> 100 µM	> 100 µM	> 100 µM	> 100 µM	> 100 µM	> 100 µM	> 100 µM
NC(=O)Cc1ncn(-c2ccccc2)n1	> 100 µM	> 100 µM	> 100 µM	> 100 µM	> 100 µM	> 100 µM	> 100 µM	> 100 µM	> 100 µM	> 100 µM	> 100 µM	> 100 µM	> 100 µM	> 100 µM	> 100 µM	> 100 µM	> 100 µM
COc1ccc2c(C)cc(N/N=C/c3sccc3C)nc2c1	> 100 µM	23.3 µM	36.7 µM	27.4 µM	26.1 µM	48.6 µM	25.9 µM	21.9 µM	10.6 µM	28.1 µM	26.6 µM	85.9 µM	28.4 µM	18.9 µM	31.9 µM	26.1 µM	43.3 µM
COc1ccc(N2C(=O)CSC2c2cc3cc(Br)ccc3nc2Cl)cc1 (stereo not drawn)	> 50 µM	> 50 µM	> 50 µM	> 50 µM	> 50 µM	> 50 µM	> 50 µM	> 50 µM	> 50 µM	> 50 µM	> 50 µM	> 50 µM	> 50 µM	> 50 µM	> 50 µM	> 50 µM	> 50 µM
COc1ccc(-n2nnc3c(C#N)c(-c4ccccc4)c(C)n3c2=O)cc1	58.5 µM	> 100 µM	> 100 µM	> 100 µM	> 100 µM	–	> 100 µM	> 100 µM	> 100 µM	> 100 µM	> 100 µM	> 100 µM	> 100 µM	48 µM	> 100 µM	72.1 µM	> 100 µM
COC(=O)[C@@]12CC[C@]1(C(=O)OC)C1C(C)=CC(=O)O[C@@]12C (stereo partly drawn)	> 100 µM	> 100 µM	> 100 µM	> 100 µM	> 100 µM	> 100 µM	> 100 µM	> 100 µM	> 100 µM	> 100 µM	> 100 µM	> 100 µM	> 100 µM	> 100 µM	> 100 µM	> 100 µM	> 100 µM
CN(C)CCCc1cccnc1	> 100 µM	> 100 µM	> 100 µM	> 100 µM	> 100 µM	–	> 100 µM	> 100 µM	> 100 µM	> 100 µM	> 100 µM	> 100 µM	> 100 µM	> 100 µM	> 100 µM	> 100 µM	> 100 µM
CC1CC(=O)N2CCCNC2=C1C#N (stereo not drawn)	> 100 µM	> 100 µM	> 100 µM	> 100 µM	> 100 µM	> 100 µM	> 100 µM	> 100 µM	> 100 µM	–	> 100 µM	> 100 µM	> 100 µM	> 100 µM	> 100 µM	> 100 µM	> 100 µM
CC(C)(C)c1ccc(-c2nc3ccccc3c(=O)o2)cc1	44.2 µM	> 100 µM	> 100 µM	> 100 µM	62.2 µM	47.8 µM	–	69.6 µM	62.1 µM	> 100 µM	93.3 µM	> 100 µM	> 100 µM	38.2 µM	> 100 µM	95.2 µM	> 100 µM
CCc1ccc(CCC(=O)O)nc1	> 100 µM	> 100 µM	> 100 µM	> 100 µM	> 100 µM	–	> 100 µM	> 100 µM	> 100 µM	> 100 µM	> 100 µM	> 100 µM	> 100 µM	> 100 µM	> 100 µM	> 100 µM	> 100 µM
Cn1c(=O)nc2n(CCO)ccnc-2c1=O	> 100 µM	> 100 µM	> 100 µM	> 100 µM	> 100 µM	> 100 µM	> 100 µM	> 100 µM	> 100 µM	> 100 µM	> 100 µM	> 100 µM	> 100 µM	> 100 µM	–	> 100 µM	> 100 µM
